Values of other authors in patent US20220023306A1, “USE OF A PPAR-DELTA AGONIST IN THE TREATMENT OF FATTY ACID OXIDATION DISORDERS (FAOD)” (Reneo Pharmaceuticals, Inc., priority 2019, published 2022).
Where two headings read alike, the source gives them in different places.

Assays:
[1] = system: fibroblasts derived from patients with VLCAD, LCHAD and TFP deficiencies; conditions: cited from earlier work
[2] = system: control myoblasts; conditions: cited from earlier work
[3] = system: CPT2-deficient myoblasts; conditions: cited from earlier work; for FAO: CPT2-deficient myoblasts
[4] = system: VLCAD; conditions: VLCAD deficient cell line FB833; cited from earlier work
[5] = system: CPT2; conditions: cultured patient fibroblasts carrying mild mutations of the CPT2 gene; cited from earlier work

SMILES: Cc1cnc(-c2ccc(C(F)(F)F)cc2)n1Cc1ccccc1OCCC[C@@H](C)CC(=O)O [MA-0211]
- fatty acid oxidation ([1]; fibroblasts from patients with LCHAD deficiency): improvements
- fatty acid oxidation ([1]; fibroblasts from patients with TFP deficiency): improvements
- fatty acid oxidation ([1]; fibroblasts from patients with VLCAD deficiency): improvements

SMILES: Cc1cc(SCc2sc(-c3ccc(C(F)(F)F)c(F)c3)nc2C)ccc1OCC(=O)O [GW 072]
- FAO [2]: stimulated
- long-chain acylcarnitine production ([3]; CPT2-deficient cells): normalized
- residual CPT2 activity ([3]; CPT2-deficient cells): increased
- FAO [3]: restore

SMILES: CCCc1c(OCCCOc2ccc(OCC(=O)O)cc2)ccc(C(C)=O)c1O [L-165,0411, [4-[3-(4-Acetyl-3-hydroxy-2-propylphenoxy)propoxy]phenoxy]acetic acid]
- VLCAD enzyme activity [4]: increase

SMILES: CC(C)(Oc1ccc(CCNC(=O)c2ccc(Cl)cc2)cc1)C(=O)O [bezafibrate, 2-(4-{2-[(4-Chlorobenzoyl)amino]ethyl}phenoxy)-2-methylpropanoic acid]
- FAO [3]: restore
- enhancement of deficient enzyme (CPT2) [5]: enhancement

SMILES: Cc1cc(SCc2sc(-c3ccc(C(F)(F)F)cc3)nc2C)ccc1OCC(=O)O [GW501516, 2-[2-Methyl-4-[[[4-methyl-2-[4-(trifluoromethyl)phenyl]-5-thiazolyl]methyl]thio]phenoxy]acetic acid]
- VLCAD enzyme activity [4]: increase

SMILES: CC(C)(Sc1ccc(CCN(CCCCC2CCCCC2)C(=O)NC2CCCCC2)cc1)C(=O)O [GW 7647]
- FAO [3]: no effect

SMILES: Cc1cc(SCc2sc(-c3ccc(C(F)(F)F)c(F)c3)nc2C)ccc1OCC(=O)O [GW0742, [4-[[[2-[3-Fluoro-4-(trifluoromethyl)phenyl]-4-methyl-5-thiazolyl]methyl]thio]-2-methylphenoxy]acetic acid]
- VLCAD enzyme activity [4]: increase
